Results on 31 molecules are retold here after patent publication EP2776398B1, “SUBSTITUTED PYRAZOLYL-BASED UREA DERIVATIVES AS VANILLOID RECEPTOR LIGANDS” (Medifron DBT Inc., priority 2011, dated 2013).

T1 sequence (Q8NER1 whole entry): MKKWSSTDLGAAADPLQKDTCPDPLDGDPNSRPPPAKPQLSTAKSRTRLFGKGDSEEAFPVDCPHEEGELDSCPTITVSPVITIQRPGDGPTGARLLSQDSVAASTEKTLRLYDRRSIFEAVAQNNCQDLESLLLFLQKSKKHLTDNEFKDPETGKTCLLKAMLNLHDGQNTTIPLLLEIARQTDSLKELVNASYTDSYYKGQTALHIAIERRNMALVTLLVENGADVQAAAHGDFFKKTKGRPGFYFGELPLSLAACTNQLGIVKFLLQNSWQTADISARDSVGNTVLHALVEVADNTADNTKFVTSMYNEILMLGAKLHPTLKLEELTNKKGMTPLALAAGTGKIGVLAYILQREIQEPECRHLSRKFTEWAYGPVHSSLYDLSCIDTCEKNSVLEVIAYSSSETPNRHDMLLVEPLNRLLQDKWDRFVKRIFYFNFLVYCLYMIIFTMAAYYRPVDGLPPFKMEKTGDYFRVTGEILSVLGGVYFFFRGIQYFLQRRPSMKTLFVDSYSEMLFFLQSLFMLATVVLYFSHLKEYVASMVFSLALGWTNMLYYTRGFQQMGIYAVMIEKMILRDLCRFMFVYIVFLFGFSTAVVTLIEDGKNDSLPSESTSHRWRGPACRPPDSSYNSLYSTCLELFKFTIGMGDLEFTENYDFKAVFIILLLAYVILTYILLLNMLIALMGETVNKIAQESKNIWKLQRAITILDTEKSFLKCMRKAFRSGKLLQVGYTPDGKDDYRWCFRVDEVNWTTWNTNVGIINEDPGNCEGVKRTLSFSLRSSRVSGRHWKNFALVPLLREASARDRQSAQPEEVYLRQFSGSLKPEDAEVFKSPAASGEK

The first assay concerns the target T1, vanilloid receptor 1 (VR1/TRPV1 receptor) (Homo sapiens, UniProt Q8NER1).
T1 construct: expressed in transfected cells; host or cells: CHO K1 cells (ECACC), stably transfected
The experiment in a line: Functional testing on vanilloid receptor 1: FLIPR Ca2+ influx assay against capsaicin (Cap) in transfected CHO K1 cells (pharmacological method II). The class given is cell-based. On the set-up: key to (f) Ki (human being) [nM] Cap: agonist classification: AG = agonist. The settings on record: @ 5µM; human VR1 in CHO K1 cells; capsaicin; relative to maximum inhibition with 10 µM capsazepine; read-out: inhibition (as a percentage), printed in column (f) Ki (human being) [nM] Cap.
Description: […]
In the case of `O=C(NCc1cc(C(F)(F)F)nn1-c1ccc(F)c(F)c1)Nc1ccc(COCCO)c(F)c1` [A132, 1-[[2-(3,4-Difluoro-phenyl)-5-(trifluoromethyl)-2H-pyrazol-3-yl]-methyl]-3-[3-fluoro-4-(2-hydroxy-ethoxy-methyl)-phenyl]-urea], the inhibition at 5 µM is 48%.
On the same count and under the same terms, the same measure for `CC(CO)(CO)c1ccc(NC(=O)NCc2cc(C(F)(F)F)nn2-c2cccc(Cl)c2)cc1` [A155, 1-[[2-(3-Chlorophenyl)-5-(trifluoromethyl)-2H-pyrazol-3-yl]-methyl]-3-[4-[2-hydroxy-1-(hydroxymethyl)-1-methyl-ethyl]-phenyl]-urea]: 26%.

Still in this assay, the particulars now being: human VR1 in CHO K1 cells; AG printed instead of a Ki.
As for `COc1c(F)cc(C(C)C(=O)NCc2cc(C(C)(C)C)nn2-c2ccc(F)c(Cl)c2)cc1F` (stereo not shown) [A5, N-[[5-tert-Butyl-2-(3-chloro-4-fluoro-phenyl)-2H-pyrazol-3-yl]-methyl]-2-(3,5-difluoro-4-methoxy-phenyl)-propionamide], the “(f) Ki (human being) [nM] Cap: agonist classification” value (from here on “(f) Ki (human being) [nM] Cap”) is “AG”.
As to `CC(C(=O)NCc1cc(C(C)(C)C)nn1-c1ccc(F)c(Cl)c1)c1ccc(CO)c(F)c1` (stereo not shown) [A41, N-[[5-tert-Butyl-2-(3-chloro-4-fluoro-phenyl)-2H-pyrazol-3-yl]-methyl]-2-[3-fluoro-4-(hydroxymethyl)-phenyl]-propionamide], the “(f) Ki (human being) [nM] Cap” value is “AG”.
The same measure, in the same setting: with `COc1ccc(NC(=O)NCc2cc(C(C)(C)C)nn2-c2cccc(Cl)c2)cc1OC` [A13, 1-[[5-tert-Butyl-2-(3-chlorophenyl)-2H-pyrazol-3-yl]-methyl]-3-(3,4-dimethoxyphenyl)-urea] the entry was “AG”; with `CC(C(=O)NCc1cc(C(C)(C)C)nn1-c1ccc(F)c(F)c1)c1ccc(CO)c(F)c1` (stereo not shown) [A39, N-[[5-tert-Butyl-2-(3,4-difluoro-phenyl)-2H-pyrazol-3-yl]-methyl]-2-[3-fluoro-4-(hydroxymethyl)-phenyl]-propionamide], “AG”; with `CC(C)(C)c1cc(CNC(=O)Nc2cc(F)c(O)c(F)c2)n(-c2cccc(Cl)c2)n1` [A11, 1-[[5-tert-Butyl-2-(3-chlorophenyl)-2H-pyrazol-3-yl]-methyl]-3-(3,5-difluoro-4-hydroxy-phenyl)-urea], “AG”.
Regarding `COc1cc(C(C)C(=O)NCc2cc(C(C)(C)C)nn2-c2cccc(Cl)c2)ccc1CO` (stereo not shown) [A49, N-[[5-tert-Butyl-2-(3-chlorophenyl)-2H-pyrazol-3-yl]-methyl]-2-[4-(hydroxymethyl)-3-methoxy-phenyl]-propionamide], the “(f) Ki (human being) [nM] Cap” value is given as “AG”.
As for `CC(C(=O)NCc1cc(C(C)(C)C)nn1-c1cccc(C(F)(F)F)c1)c1ccc(CO)c(F)c1` (stereo not shown) [A47, N-[[5-tert-Butyl-2-[3-(trifluoromethyl)phenyl]-2H-pyrazol-3-yl]-methyl]-2-[3-fluoro-4-(hydroxymethyl)-phenyl]-propionamide], the “(f) Ki (human being) [nM] Cap” value is reported as “AG”.
Same read-out and setting: the same measure for `CC(C(=O)NCc1cc(C(C)(C)C)nn1-c1cccc(Cl)c1)c1ccc(CCO)c(F)c1` (stereo not shown) [A139, N-[[5-tert-Butyl-2-(3-chlorophenyl)-2H-pyrazol-3-yl]-methyl]-2-[3-fluoro-4-(2-hydroxy-ethyl)-phenyl]-propionamide]: “AG”.

Staying with this assay, now noted: read-out: (f) Ki (human being) [nM] Cap.
Take `COc1ccc(-n2nc(C(F)(F)F)cc2CNC(=O)Nc2ccc(CO)c(F)c2)cc1C` [A87, 1-[3-Fluoro-4-(hydroxymethyl)-phenyl]-3-[[2-(4-methoxy-3-methyl-phenyl)-5-(trifluoromethyl)-2H-pyrazol-3-yl]-methyl]-urea]: the Ki worked out at 63 nM.
For the molecule `COc1c(F)cc(CC(=O)NCc2cc(C(C)(C)C)nn2-c2ccc(F)c(Cl)c2)cc1F` [A6, N-[[5-tert-Butyl-2-(3-chloro-4-fluoro-phenyl)-2H-pyrazol-3-yl]-methyl]-2-(3,5-difluoro-4-methoxy-phenyl)-acetamide], the Ki is 14 nM.
On the same count and under the same terms, with `O=C(NCc1cc(C(F)(F)F)nn1-c1cccc(Cl)c1Cl)Nc1ccc(COCCO)c(F)c1` [A133, 1-[[2-(2,3-Dichloro-phenyl)-5-(trifluoromethyl)-2H-pyrazol-3-yl]-methyl]-3-[3-fluoro-4-(2-hydroxy-ethoxy-methyl)-phenyl]-urea] the figure was 12 nM.
Same read-out and setting: with `O=C(NCc1cc(C(F)(F)F)nn1-c1cccc(Cl)c1)Nc1ccc(OCC(O)CO)c(F)c1` (stereo not shown) [A25, 1-[[2-(3-Chlorophenyl)-5-(trifluoromethyl)-2H-pyrazol-3-yl]-methyl]-3-[4-(2,3-dihydroxy-propoxy)-3-fluoro-phenyl]-urea] the figure was 65 nM; with `CC(C(=O)NCc1cc(C(C)(C)C)nn1-c1cccc(Cl)c1)c1ccc(C2(O)CC2)c(F)c1` (stereo not shown) [A100, N-[[5-tert-Butyl-2-(3-chlorophenyl)-2H-pyrazol-3-yl]-methyl]-2-[3-fluoro-4-(1-hydroxy-cyclopropyl)-phenyl]-propionamide], 0.7 nM.
Same read-out and setting: with `O=C(NCc1cc(C(F)(F)F)nn1-c1cccc(Cl)c1)Nc1ccc(C2(O)COC2)cc1` [A108, 1-[[2-(3-Chlorophenyl)-5-(trifluoromethyl)-2H-pyrazol-3-yl]-methyl]-3-[4-(3-hydroxy-oxetan-3-yl)-phenyl]-urea] the figure was 48 nM; with `O=C(NCc1cc(C(F)(F)F)nn1-c1cccc(Cl)c1)Nc1ccc(CO)cc1` [A28, 1-[[2-(3-Chlorophenyl)-5-(trifluoromethyl)-2H-pyrazol-3-yl]-methyl]-3-[4-(hydroxymethyl)-phenyl]-urea], 22 nM; with `CC(CO)(CO)c1ccc(NC(=O)NCc2cc(C(F)(F)F)nn2-c2cccc(Cl)c2)cc1F` [A154, 1-[[2-(3-Chlorophenyl)-5-(trifluoromethyl)-2H-pyrazol-3-yl]-methyl]-3-[3-fluoro-4-[2-hydroxy-1-(hydroxymethyl)-1-methyl-ethyl]-phenyl]-urea], 117 nM.
For the molecule `COc1c(C)cccc1-n1nc(C(F)(F)F)cc1CNC(=O)Nc1ccc(CO)c(F)c1` [A94, 1-[3-Fluoro-4-(hydroxymethyl)-phenyl]-3-[[2-(2-methoxy-3-methyl-phenyl)-5-(trifluoromethyl)-2H-pyrazol-3-yl]-methyl]-urea], the Ki is 30 nM.
Still for that read-out and setting: with `O=C(NCc1cc(C2CC2)nn1-c1cccc(Cl)c1)Nc1ccc(CO)c(F)c1` [A53, 1-[[2-(3-Chlorophenyl)-5-cyclopropyl-2H-pyrazol-3-yl]-methyl]-3-[3-fluoro-4-(hydroxymethyl)-phenyl]-urea] the figure was 18 nM; with `CC(C(=O)NCc1cc(C(F)(F)F)nn1-c1ccc(F)c(Cl)c1)c1ccc(COCCO)c(F)c1` (stereo not shown) [A121, N-[[2-(3-Chloro-4-fluoro-phenyl)-5-(trifluoromethyl)-2H-pyrazol-3-yl]-methyl]-2-[3-fluoro-4-(2-hydroxy-ethoxy-methyl)-phenyl]-propionamide], 20 nM; with `COc1cccc(-n2nc(C(F)(F)F)cc2CNC(=O)C(C)c2ccc(CO)c(F)c2)c1` (stereo not shown) [A43, 2-[3-Fluoro-4-(hydroxymethyl)-phenyl]-N-[[2-(3-methoxyphenyl)-5-(trifluoromethyl)-2H-pyrazol-3-yl]-methyl]-propionamide], 21 nM.
The same measure, in the same setting: the same measure for `COCCOCc1ccc(NC(=O)NCc2cc(C(F)(F)F)nn2-c2cccc(Cl)c2)cc1F` [A128, 1-[[2-(3-Chlorophenyl)-5-(trifluoromethyl)-2H-pyrazol-3-yl]-methyl]-3-[3-fluoro-4-(2-methoxy-ethoxy-methyl)-phenyl]-urea]: 67 nM; for `CC(C)(C)c1cc(CNC(=O)Nc2ccc(CO)cc2)n(-c2cccc(Cl)c2)n1` [A27, 1-[[5-tert-Butyl-2-(3-chlorophenyl)-2H-pyrazol-3-yl]-methyl]-3-[4-(hydroxymethyl)-phenyl]-urea]: 1 nM; for `COc1cccc(-n2nc(C(F)(F)F)cc2CNC(=O)C(C)c2ccc(COCCO)c(F)c2)c1` (stereo not shown) [A114, 2-[3-Fluoro-4-(2-hydroxy-ethoxy-methyl)-phenyl]-N-[[2-(3-methoxyphenyl)-5-(trifluoromethyl)-2H-pyrazol-3-yl]-methyl]-propionamide]: 46 nM.
Consider `CC(C(=O)NCc1cc(C(F)(F)F)nn1-c1cccc(Cl)c1)c1cc(F)c(CO)c(F)c1` (stereo not shown) [A52, N-[[2-(3-Chlorophenyl)-5-(trifluoromethyl)-2H-pyrazol-3-yl]-methyl]-2-[3,5-difluoro-4-(hydroxymethyl)-phenyl]-propionamide], for which the Ki turned out to be 140 nM.
Still for that read-out and setting: with `COc1ccc(-n2nc(C(F)(F)F)cc2CNC(=O)Nc2ccc(CO)c(F)c2)cc1F` [A95, 1-[3-Fluoro-4-(hydroxymethyl)-phenyl]-3-[[2-(3-fluoro-4-methoxy-phenyl)-5-(trifluoromethyl)-2H-pyrazol-3-yl]-methyl]-urea] the figure was 13 nM; with `CC(C(=O)NCc1cc(C(F)(F)F)nn1-c1cccc(F)c1)c1ccc(CCO)c(F)c1` (stereo not shown) [A136, 2-[3-Fluoro-4-(2-hydroxy-ethyl)-phenyl]-N-[[2-(3-fluorophenyl)-5-(trifluoromethyl)-2H-pyrazol-3-yl]-methyl]-propionamide], 40 nM; with `CC(O)c1ccc(C(C)C(=O)NCc2cc(C(F)(F)F)nn2-c2cccc(Cl)c2)cc1F` (stereo not shown) [A99, N-[[2-(3-Chlorophenyl)-5-(trifluoromethyl)-2H-pyrazol-3-yl]-methyl]-2-[3-fluoro-4-(1-hydroxy-ethyl)-phenyl]-propionamide], 6 nM.
Same read-out and setting: with `CC(C)(C)c1cc(CNC(=O)Nc2ccc(C(O)CO)c(F)c2)n(-c2cccc(Cl)c2)n1` (stereo not shown) [A150, 1-[[5-tert-Butyl-2-(3-chlorophenyl)-2H-pyrazol-3-yl]-methyl]-3-[4-(1,2-dihydroxy-ethyl)-3-fluoro-phenyl]-urea] the figure was 19 nM; with `CC(C(=O)NCc1cc(C2CC2)nn1-c1cccc(Cl)c1)c1ccc(CO)c(F)c1` (stereo not shown) [A31, N-[[2-(3-Chlorophenyl)-5-cyclopropyl-2H-pyrazol-3-yl]-methyl]-2-[3-fluoro-4-(hydroxymethyl)-phenyl]-propionamide], 3 nM.

What is called inhibition is the drop in the measured response relative to a control, in per cent. As a reminder, the Ki is the dissociation constant of the complex between target and ligand, obtained from inhibition or displacement.
